One assay has as its target dopaminergic D3 receptor (Homo sapiens, UniProt P35462). Kind of assay: Binding assay D3 (h), [3H]methyl-spiperone, CHO cells. As to conditions: for inhibition at 1 µM: read-out: D3 [%]. On the set-up: expressed in transfected cells; host or cells: CHO cells. The essentials:
(§1)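 Scintillation counting detects receptor-bound radioligand. Compound tested at 1×10^−6 M.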

In a further assay the target is dopaminergic D2 receptor (Homo sapiens, UniProt P14416). Kind of assay: Binding assay D2S (h), [3H]methyl-spiperone, HEK-293 cells. Also on record: expressed in transfected cells; host or cells: HEK-293 cells. The following applies: for inhibition at 1 µM: read-out: D2 [%]. The essentials:
as §1

In assay [1] the target is serotoninergic 5-HT2A receptor (Homo sapiens, UniProt P28223). The experiment in a line: Binding assay 5-HT2A (h), [3H]ketanserin, HEK-293 cells. On the set-up: expressed in transfected cells; host or cells: HEK-293 cells. The following applies: for inhibition at 1 µM: read-out: 5-HT2A. The method, boiled down: as §1
The test system of a further assay is adrenergic α1 receptor. Kind of assay: Binding assay α1 (non-selective), [3H]prazosin, rat cerebral cortex. As to conditions: percent inhibition of control specific binding; compounds tested at 1×10^−6 M. The essentials:
as §1

Assay [2] deals with T1, serotoninergic 5-HT1A receptor (Homo sapiens, UniProt P08908).
T1 sequence (P08908 1-422): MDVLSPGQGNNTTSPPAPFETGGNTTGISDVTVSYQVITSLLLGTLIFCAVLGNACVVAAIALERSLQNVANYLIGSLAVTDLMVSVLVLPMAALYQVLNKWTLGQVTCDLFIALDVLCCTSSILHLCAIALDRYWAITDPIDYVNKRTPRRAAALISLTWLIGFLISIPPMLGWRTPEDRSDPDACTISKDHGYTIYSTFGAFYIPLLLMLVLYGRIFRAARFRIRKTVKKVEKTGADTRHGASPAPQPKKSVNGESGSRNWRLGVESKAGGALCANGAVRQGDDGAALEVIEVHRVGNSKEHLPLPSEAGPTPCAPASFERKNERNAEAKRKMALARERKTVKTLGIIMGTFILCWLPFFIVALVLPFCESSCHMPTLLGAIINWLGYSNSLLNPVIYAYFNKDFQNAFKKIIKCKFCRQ
The experiment in a line: Binding assay 5-HT1A (h), [3H]8-OH-DPAT, HEK-293 cells. Also on record: expressed in transfected cells; host or cells: HEK-293 cells. As to conditions: for inhibition at 1 µM: read-out: 5-HT1A. The method, boiled down:
as §1

The next assay has as its target T2, muscarinic M3 receptor (Homo sapiens, UniProt P20309).
T2 construct: expressed in transfected cells; host or cells: CHO cells
The experiment in a line: Binding assay M3 (h), [3H]4-DAMP, CHO cells. The following applies: read-out: M3 [%]. The procedure: (§2) The specific ligand binding to the receptors is defined as the difference between the total binding and the nonspecific binding determined in the presence of an excess of so unlabelled ligand.
(§3) The specific Ligand binding to the receptor is defined as the difference between total and non-specific binding determined in the presence of an excess of unlabelled ligand. The compounds were tested at a concentration of 1×10^−6 M, and scintillation counting was the method of detection of ligand binding.

In assay [3] the target is serotoninergic 5-HT6 receptor (Homo sapiens, UniProt P50406). Kind of assay: Binding assay 5-HT6 (h), [3H]LSD, CHO cells. Also on record: expressed in transfected cells; host or cells: CHO cells. The following applies: for inhibition at 1 µM: read-out: 5-HT6. The essentials: as §1
Assay [4] concerns the target T3, serotonine transporter (SERT) receptor (Homo sapiens, UniProt P31645).
T3 construct: expressed in transfected cells; host or cells: CHO cells
The experiment in a line: Binding assay SERT (h), [3H]imipramine, CHO cells. As to conditions: for inhibition at 1 µM: read-out: SERT [%]. The method, boiled down:
as §1

For assay [5], the target named is serotoninergic 5-HT7 receptor (Homo sapiens, UniProt P34969). The experiment in a line: Binding assay 5-HT7 (h), [3H]LSD, CHO cells. Also on record: expressed in transfected cells; host or cells: CHO cells. As to conditions: for inhibition at 1 µM: read-out: 5-HT7. The essentials: as §1
For a further assay, the system named is sigma σ receptor. Kind of assay: Binding assay σ (non-selective), [3H]DTG, rat cerebral cortex. The following applies: percent inhibition of control specific binding; compounds tested at 1×10^−6 M. As to the method:
as §2, §3

For a further assay, the target named is T4, adrenergic α2C receptor (Homo sapiens, UniProt P18825).
T4 sequence (P18825 1-462): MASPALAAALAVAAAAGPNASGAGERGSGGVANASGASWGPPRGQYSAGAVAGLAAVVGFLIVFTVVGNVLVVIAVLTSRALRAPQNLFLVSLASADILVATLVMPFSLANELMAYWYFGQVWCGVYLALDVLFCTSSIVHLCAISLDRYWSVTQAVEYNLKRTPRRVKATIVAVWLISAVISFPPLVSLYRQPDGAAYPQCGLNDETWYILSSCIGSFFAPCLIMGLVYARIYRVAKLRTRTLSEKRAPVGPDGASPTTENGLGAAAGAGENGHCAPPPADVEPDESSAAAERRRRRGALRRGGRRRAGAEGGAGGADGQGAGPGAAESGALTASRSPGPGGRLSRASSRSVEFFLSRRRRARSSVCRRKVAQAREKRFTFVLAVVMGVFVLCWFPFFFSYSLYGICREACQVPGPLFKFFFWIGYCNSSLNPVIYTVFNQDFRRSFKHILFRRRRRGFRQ
Kind of assay: Binding assay α2C (h), [3H]RX 821002, CHO cells. On the set-up: expressed in transfected cells; host or cells: CHO cells. As to conditions: read-out: α2C [%]. As to the method:
as §2, §3

Assay [6] addresses histaminergic H1 receptor (Homo sapiens, UniProt P35367). Kind of assay: Binding assay H1 (h), [3H]pyrilamine, HEK-293 cells. As to conditions: read-out: H1 [%]. On the set-up: expressed in transfected cells; host or cells: HEK-293 cells. As to the method:
as §2, §3

In assay [7] the target is T5, serotoninergic receptor 5-HT2C (Homo sapiens, UniProt P28335).
T5 construct: expressed in transfected cells; host or cells: HEK-293 cells
T5 sequence (P28335 33-458): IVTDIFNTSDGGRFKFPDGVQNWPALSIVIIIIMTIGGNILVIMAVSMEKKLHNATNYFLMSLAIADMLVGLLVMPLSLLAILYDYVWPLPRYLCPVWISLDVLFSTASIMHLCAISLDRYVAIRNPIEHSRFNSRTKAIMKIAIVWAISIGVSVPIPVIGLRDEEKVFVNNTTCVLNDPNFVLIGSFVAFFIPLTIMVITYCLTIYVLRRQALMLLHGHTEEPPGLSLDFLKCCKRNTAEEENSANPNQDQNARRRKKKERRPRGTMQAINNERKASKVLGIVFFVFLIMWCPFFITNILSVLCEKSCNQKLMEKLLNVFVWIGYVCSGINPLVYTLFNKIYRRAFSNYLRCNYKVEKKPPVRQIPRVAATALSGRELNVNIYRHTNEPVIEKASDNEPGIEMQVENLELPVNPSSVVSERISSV
The experiment in a line: Binding assay 5-HT2C (h), [3H]mesulergine, HEK-293 cells. As to conditions: read-out: 5-HT2C [%]. The procedure: as §2, §3

[8] abbreviates: percent inhibition of control specific binding, compounds tested at 1×10^−6 M.

Data on 9 molecules can be found in US8822517B2, “Arylosulfonamides for the treatment of CNS diseases” (Adamed SP. Z O.O., priority 2010, dated 2014).

Chain of histaminergic H1 receptor (P35367 whole entry): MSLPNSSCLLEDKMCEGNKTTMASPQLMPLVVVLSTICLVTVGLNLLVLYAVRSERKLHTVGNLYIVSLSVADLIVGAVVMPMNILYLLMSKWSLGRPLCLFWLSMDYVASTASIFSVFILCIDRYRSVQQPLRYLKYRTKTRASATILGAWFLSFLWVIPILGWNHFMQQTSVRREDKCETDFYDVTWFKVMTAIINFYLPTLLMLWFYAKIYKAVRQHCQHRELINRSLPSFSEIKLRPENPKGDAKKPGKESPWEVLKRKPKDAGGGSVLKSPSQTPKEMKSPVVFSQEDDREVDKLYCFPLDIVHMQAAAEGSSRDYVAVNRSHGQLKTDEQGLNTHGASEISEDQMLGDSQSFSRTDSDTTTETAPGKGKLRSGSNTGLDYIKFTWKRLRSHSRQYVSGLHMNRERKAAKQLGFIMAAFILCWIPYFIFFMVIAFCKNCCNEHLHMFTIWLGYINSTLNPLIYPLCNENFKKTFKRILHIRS
Chain of dopaminergic D3 receptor (P35462 whole entry): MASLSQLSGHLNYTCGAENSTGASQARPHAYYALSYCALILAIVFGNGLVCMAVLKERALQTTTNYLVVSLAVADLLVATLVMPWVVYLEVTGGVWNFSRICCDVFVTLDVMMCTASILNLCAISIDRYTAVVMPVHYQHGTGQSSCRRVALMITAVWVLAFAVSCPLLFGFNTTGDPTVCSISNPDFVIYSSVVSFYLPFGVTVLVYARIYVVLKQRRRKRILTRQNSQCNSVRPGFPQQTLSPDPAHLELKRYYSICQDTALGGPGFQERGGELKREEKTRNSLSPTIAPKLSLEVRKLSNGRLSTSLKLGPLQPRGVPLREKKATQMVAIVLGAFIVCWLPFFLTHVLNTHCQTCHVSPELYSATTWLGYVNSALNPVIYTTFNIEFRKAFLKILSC
T2 sequence (P20309 whole entry): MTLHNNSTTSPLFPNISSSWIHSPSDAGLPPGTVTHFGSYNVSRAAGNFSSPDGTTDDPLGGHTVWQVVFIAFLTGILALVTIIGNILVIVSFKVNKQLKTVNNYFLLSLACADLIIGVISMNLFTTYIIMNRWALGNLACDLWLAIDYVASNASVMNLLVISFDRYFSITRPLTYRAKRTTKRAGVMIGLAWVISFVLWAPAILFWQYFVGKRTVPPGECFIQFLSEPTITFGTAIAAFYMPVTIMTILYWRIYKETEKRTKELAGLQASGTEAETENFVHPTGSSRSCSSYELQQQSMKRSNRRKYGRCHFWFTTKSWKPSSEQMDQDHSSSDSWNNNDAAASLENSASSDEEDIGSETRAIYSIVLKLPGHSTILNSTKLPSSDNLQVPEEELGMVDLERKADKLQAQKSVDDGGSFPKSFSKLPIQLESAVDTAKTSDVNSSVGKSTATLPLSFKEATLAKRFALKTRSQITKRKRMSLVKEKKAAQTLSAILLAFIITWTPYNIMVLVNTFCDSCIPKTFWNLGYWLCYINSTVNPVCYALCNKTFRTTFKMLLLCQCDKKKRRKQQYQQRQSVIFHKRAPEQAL
Chain of serotoninergic 5-HT2A receptor (P28223 whole entry): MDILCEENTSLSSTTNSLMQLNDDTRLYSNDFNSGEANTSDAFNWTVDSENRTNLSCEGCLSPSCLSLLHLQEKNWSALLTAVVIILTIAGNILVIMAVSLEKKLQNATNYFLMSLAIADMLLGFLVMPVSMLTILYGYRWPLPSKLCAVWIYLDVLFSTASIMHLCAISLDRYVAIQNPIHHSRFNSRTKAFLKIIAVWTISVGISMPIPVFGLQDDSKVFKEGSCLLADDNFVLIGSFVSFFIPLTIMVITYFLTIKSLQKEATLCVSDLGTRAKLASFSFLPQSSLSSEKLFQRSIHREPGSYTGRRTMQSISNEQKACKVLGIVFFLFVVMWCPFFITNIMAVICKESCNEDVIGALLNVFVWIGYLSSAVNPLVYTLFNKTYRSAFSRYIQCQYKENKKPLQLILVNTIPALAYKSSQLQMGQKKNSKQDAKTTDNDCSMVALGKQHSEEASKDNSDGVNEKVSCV
T3 sequence (P31645 whole entry): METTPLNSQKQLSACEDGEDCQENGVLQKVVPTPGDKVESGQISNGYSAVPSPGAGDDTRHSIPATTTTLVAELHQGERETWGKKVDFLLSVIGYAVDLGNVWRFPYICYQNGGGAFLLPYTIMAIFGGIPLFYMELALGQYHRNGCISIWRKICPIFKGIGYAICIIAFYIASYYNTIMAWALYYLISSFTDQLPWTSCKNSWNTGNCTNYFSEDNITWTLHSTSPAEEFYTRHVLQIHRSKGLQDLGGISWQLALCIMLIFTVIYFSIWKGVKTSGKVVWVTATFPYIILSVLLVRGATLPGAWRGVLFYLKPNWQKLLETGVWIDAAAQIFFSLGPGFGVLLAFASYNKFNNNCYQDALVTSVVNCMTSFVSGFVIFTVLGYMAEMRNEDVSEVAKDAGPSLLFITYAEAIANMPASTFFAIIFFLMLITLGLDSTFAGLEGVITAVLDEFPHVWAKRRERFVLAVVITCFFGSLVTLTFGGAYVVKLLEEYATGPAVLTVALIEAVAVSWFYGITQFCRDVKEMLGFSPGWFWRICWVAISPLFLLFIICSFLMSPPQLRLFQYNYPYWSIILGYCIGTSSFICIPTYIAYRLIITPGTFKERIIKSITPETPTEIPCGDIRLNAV
Chain of serotoninergic 5-HT7 receptor (P34969 whole entry): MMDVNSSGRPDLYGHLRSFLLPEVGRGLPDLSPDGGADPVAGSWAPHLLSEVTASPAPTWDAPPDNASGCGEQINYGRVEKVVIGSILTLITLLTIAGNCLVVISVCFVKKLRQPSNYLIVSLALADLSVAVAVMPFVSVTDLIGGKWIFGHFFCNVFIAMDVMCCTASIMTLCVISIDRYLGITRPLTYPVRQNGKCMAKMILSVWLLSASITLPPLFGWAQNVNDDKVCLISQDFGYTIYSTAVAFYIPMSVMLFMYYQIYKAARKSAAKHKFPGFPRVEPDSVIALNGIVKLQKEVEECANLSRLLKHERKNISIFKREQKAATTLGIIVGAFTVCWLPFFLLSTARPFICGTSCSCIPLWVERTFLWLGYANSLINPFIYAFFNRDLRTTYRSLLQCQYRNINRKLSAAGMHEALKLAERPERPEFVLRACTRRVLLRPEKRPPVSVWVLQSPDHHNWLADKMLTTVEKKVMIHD
Chain of dopaminergic D2 receptor (P14416 1-414 isoform P14416-2): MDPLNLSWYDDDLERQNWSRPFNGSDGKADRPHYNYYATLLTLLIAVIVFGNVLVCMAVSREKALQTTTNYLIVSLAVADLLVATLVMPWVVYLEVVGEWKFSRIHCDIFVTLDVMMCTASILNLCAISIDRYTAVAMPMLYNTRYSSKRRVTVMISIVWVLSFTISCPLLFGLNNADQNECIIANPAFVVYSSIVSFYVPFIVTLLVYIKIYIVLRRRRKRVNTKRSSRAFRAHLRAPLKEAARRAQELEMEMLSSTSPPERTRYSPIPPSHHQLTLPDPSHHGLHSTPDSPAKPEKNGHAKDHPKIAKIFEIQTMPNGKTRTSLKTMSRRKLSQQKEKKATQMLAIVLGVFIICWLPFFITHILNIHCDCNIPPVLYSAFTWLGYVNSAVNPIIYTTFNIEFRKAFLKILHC
Chain of serotoninergic 5-HT6 receptor (P50406 whole entry): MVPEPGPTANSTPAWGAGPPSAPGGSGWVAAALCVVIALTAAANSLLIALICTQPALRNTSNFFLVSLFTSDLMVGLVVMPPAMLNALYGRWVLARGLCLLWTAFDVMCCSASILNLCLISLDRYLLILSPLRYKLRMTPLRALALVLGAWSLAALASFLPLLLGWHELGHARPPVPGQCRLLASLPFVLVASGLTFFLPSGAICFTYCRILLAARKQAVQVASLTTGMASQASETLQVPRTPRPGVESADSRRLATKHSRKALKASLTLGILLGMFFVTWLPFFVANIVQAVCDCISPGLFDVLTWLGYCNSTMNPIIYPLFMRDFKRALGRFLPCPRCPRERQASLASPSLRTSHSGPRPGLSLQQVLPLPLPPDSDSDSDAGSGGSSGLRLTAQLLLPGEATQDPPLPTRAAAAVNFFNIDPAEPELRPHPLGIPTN

On to `O=S(=O)(NCCCN1CCN(c2nsc3ccccc23)CC1)c1ccc(F)c(Cl)c1` [Compound 64, N-[3-[4-(1,2-Benzothiazol-3-yl)piperazin-1-yl]propyl]-3-chloro-4-fluorobenzenesulphonamide], for which the inhibition at 1 µM on dopaminergic D3 receptor is 98%; at dopaminergic D2 receptor, 98%; in [1], 101%; in assay [2] it was 99%; at muscarinic M3 receptor, 7%; in assay [3], 99%. In addition, the inhibition at 1 µM came out at 80% in [4], 99% in assay [5], 100% at adrenergic α2C receptor and 98% in assay [6]. The “α1 [%]” value in the assay on adrenergic α1 receptor was found to be 93%. The “σ [%]” value in the assay on sigma σ receptor turned out to be 54%.

For the molecule `O=S(=O)(NCCCN1CCC(c2noc3cc(F)ccc23)CC1)c1cc2ccc(Cl)cc2s1` [Compound 347, 6-Chloro-N-[3-[4-(6-fluoro-1,2-benzoxazol-3-yl)piperidin-1-yl]propyl]benzothiophene-2-sulphonamide], the inhibition at 1 µM at dopaminergic D3 receptor was determined as 103%; on dopaminergic D2 receptor it was 103%; in assay [1] it was 101%; in assay [2] it was 92%; in assay [7], 99%; at muscarinic M3 receptor it was 12%. Besides, the inhibition at 1 µM in assay [3] was found to be 99%; in assay [4] it was 33%; in assay [5], 100%; on adrenergic α2C receptor it was 110%; in assay [6] it was 98%.

For `O=c1[nH]c2cccc(N3CCN(CCCNS(=O)(=O)c4ccc(Cl)cc4)CC3)c2[nH]1` [Compound 425, 4-chloro-N-[3-[4-(2-oxo-1,3-dihydrobenzimidazol-4-yl)piperazin-1-yl]propyl]-benzenesulphonamide], the inhibition at 1 µM at dopaminergic D3 receptor worked out at 104%; on dopaminergic D2 receptor it was 91%; in [1], 25%; in [2] it was 98%; in [7], 24%; on muscarinic M3 receptor, 2%. The inhibition at 1 µM was determined as 5% in [3]; 10% in assay [4]; 95% in [5]; 59% at adrenergic α2C receptor; 6% in assay [6].

As to `O=S(=O)(NCCCN1CC=C(c2c[nH]c3ccc(F)cc23)CC1)c1cccc(O)c1` [Compound 437, N-[3-[4-(5-Fluoro-1H-indol-3-yl)-3,6-dihydro-2H-pyridin-1-yl]propyl]-3-hydroxybenzenesulphonamide], the inhibition at 1 µM was found to be 100% at dopaminergic D3 receptor; 57% on dopaminergic D2 receptor; 74% in assay [1]; 24% in assay [2]; 47% in assay [3]; 105% in assay [4]. In addition, the inhibition at 1 µM in assay [5] was found to be 83%. The “α1 [%]” value with adrenergic α1 receptor is on record as 52%.

Turning to `Cc1[nH]c2ccc(Cl)cc2c1C1=CCN(CCCNS(=O)(=O)c2cccc3ccccc23)CC1` [Compound 441, N-[3-[4-(5-Chloro-2-methyl-1H-indol-3-yl)-3,6-dihydro-2H-pyridin-1-yl]propyl]-naphthalene-1-sulphonamide], the inhibition at 1 µM on dopaminergic D3 receptor was 72%; at dopaminergic D2 receptor it was 77%; in assay [1], 57%; in [2], 54%; in assay [3], 84%; in [4], 1%. Besides, the inhibition at 1 µM in assay [5] is 82%. Further, in the assay with adrenergic α1 receptor, the “α1 [%]” value came to 16%.

Take `Cc1[nH]c2ccc(Cl)cc2c1C1=CCN(CCCNS(=O)(=O)c2ccc(F)cc2)CC1` [Compound 443, N-[3-[4-(5-Chloro-2-methyl-1H-indol-3-yl)-3,6-dihydro-2H-pyridin-1-yl]propyl]-4-fluorobenzenesulphonamide]: the inhibition at 1 µM was 71% at dopaminergic D3 receptor; 22% at dopaminergic D2 receptor; 67% in [1]; 59% in assay [2]; 92% in [3]; -9% in assay [4]. Besides, the inhibition at 1 µM in assay [5] was 54%. For the same molecule, the “α1 [%]” value in the assay on adrenergic α1 receptor is on record as 41%.

As for `Cc1[nH]c2ccc(Cl)cc2c1C1=CCN(CCNS(=O)(=O)c2cccc3ccccc23)CC1` [Compound 447, N-[2-[4-(5-Chloro-2-methyl-1H-indol-3-yl)-3,6-dihydro-2H-pyridin-1-yl]ethyl]-naphthalene-1-sulphonamide], the inhibition at 1 µM at dopaminergic D3 receptor is -17%; on dopaminergic D2 receptor it was 3%; in assay [1], 19%; in assay [2], 42%; in [3], 106%; in assay [4], 23%. Besides, in assay [5], the inhibition at 1 µM is 34%. Also, the “α1 [%]” value in the assay with adrenergic α1 receptor was found to be 1%.

Turning to `Cc1[nH]c2ccc(Cl)cc2c1C1=CCN(CCNS(=O)(=O)c2ccc(F)cc2)CC1` [Compound 449, N-[2-[4-(5-Chloro-2-methyl-1H-indol-3-yl)-3,6-dihydro-2H-pyridin-1-yl]ethyl]-4-fluorobenzenesulphonamide], the inhibition at 1 µM on dopaminergic D3 receptor turned out to be 34%; on dopaminergic D2 receptor, 31%; in assay [1], 76%; in [2], 57%; in assay [3], 93%; in [4] it was 21%. In addition, in assay [5], the inhibition at 1 µM worked out at 81%. Besides, in the assay with adrenergic α1 receptor, the “α1 [%]” value was found to be 12%.

As to “N-[4-[4-(1H-Indol-4-yl)piperazin-1-yl]butyl]-1,3-benzodioxole-5-sulphonamide [Compound 365]”, the “D3 [%]” value on dopaminergic D3 receptor (setting [8]) amounted to 100%. At dopaminergic D2 receptor (setting [8]), the “D2 [%]” value is 99%. Also, the 5-HT2A in assay [1] (setting [8]) amounted to 55%. In addition, in the assay on adrenergic α1 receptor, the “α1 [%]” value was 100%. Besides, the 5-HT1A in assay [2] (setting [8]) is listed as 90%. The molecule also had a 5-HT6 in assay [3] (setting [8]) of 67%. Moreover, the “SERT [%]” value in [4] (setting [8]) turned out to be 25%. This molecule also registered a 5-HT7 in [5] (setting [8]) of 95%.
